Assay results reported in patent publication US20240092779A1, “USP1 INHIBITORS AND USES THEREOF” (Zentaur Therapeutics USA Inc., priority 2022, published 2024).

How the values were obtained:
[1] = Solubility in FaSSIF (Fasted State Simulated Intestinal Fluid); format: physicochemical; settings: kinetic from dmso stock, FaSSIF pH 6.5, 25° C.
Protocol: Solubility in FaSSIF (Fasted State Simulated Intestinal Fluid)
Certain Compounds of the Disclosure were assessed for the apparent solubility in FaSSIF.
0.420 g of NaOH, 3.438 g of NaH2PO4 and 6.186 g of NaCl were dissolved into about 900 mL ultrapure water. The solution was adjusted to the pH of 6.5 with 1N NaOH or 1N HCl. The solution was then diluted with ultrapure water to 1000 mL at room temperature. The resulting solution is used as buffer solution.
2.240 g of FaSSIF Powder was added to about 500 mL of above-mentioned buffer solution. The solution was stirred until powder was completely dissolved. Then the solution was diluted with buffer A to 1000 mL at room temperature. This solution is FaSSIF to be used in the following experiment.
15 μL of stock solution (10 mM) of each sample was placed into their proper 96-well rack. 485 μL of FaSSIF was added into each vial of the cap-less solubility sample plate. One stir stick was added to each vial and the vial was sealed using a molded PTFE/Silicone plug. The solubility sample plate was transferred to the Eppendorf Thermomixer Comfort plate shaker and shaked at 25° C. at 1100 RPM for 2 hours. After completion of the 2 hours, the stir sticks using a big magnet were removed. The samples from the solubility sample plate were transferred into the filter plate. Using the vacuum manifold, all the samples are filtered. Aliquot of 5 μL was taken from filtrate followed by addition of 5 μL DMSO and 490 μL of a mixture of H2O and acetonitrile containing internal standard (1:1).
3 μM Standards solution (STD) was prepared from the 10 mM DMSO STD plate.as following: transferring 6 μL into the remaining empty plate, adding 194 μL of DMSO to that plate to have a STD concentration of 300 μM. From the 300 μM DMSO STD plate, 5 μL solution was transferred into the remaining empty plate. Addition of 5 μL PBS and 490 μL of a mixture of H2O and acetonitrile containing internal standard (1:1) to that plate furnished a final STD concentration of 3 μM STD solution.
The samples are analyzed and quantified against the standard of known concentration using LC/MS/MS, calculating the solubility of the test compound as following (DF means the dilution factor):
[Sample solubility in FsSSIF (04)]=Area Ratio sample×DF sample×[STD]/Area Ratio STD

[2] = tested on: MDA-MB-436 subcutaneous human breast cancer model; test: In vivo efficacy in MDA-MB-436 subcutaneous xenograft; settings: NOD SCID mice, 28 days
Protocol: Anti-tumor efficacy of USP1 inhibitors were evaluated in mice using the MDA-MB-436 subcutaneous human breast cancer model that harbors the loss-of-function BRCA1 mutation. 6-8 weeks old female NOD SCID mice from Beijing Anikeeper Biotech Co., Ltd. were inoculated subcutaneously with 1×10^7 MDA-MB-436 tumor cells. When tumors reached a size of approximately 130 mm 3 mice were randomized into group of 5 or 9 and dosed via oral gavage once or twice daily for 28 days with either vehicle (twice daily, 9 animals), one dose of USP1 inhibitor 1-107 at 150 mg/kg (twice daily, 5 animals), three doses of USP1 inhibitor I-111 at […] (once daily, 9 animals per group), or one dose of USP1 inhibitor 1-124 at 150 mg/kg (twice daily, 5 animals). Body weight and tumor volume were measured twice per week. Tumor volume (TV) was calculated as mean and standard deviation of the mean for each treatment group. The percentage tumor growth inhibition (TGI) was calculated using the formula: TGI=(RTVvehicle−RTVtreatment)*100)/(RTVvehicle −1), where RTV is the mean relative volumes (RTV=TVDay terminal[…]) of the tumors in the treatment and the vehicle groups, respectively, on a given day from Day 0-Day 28 where Day 0 is the first day of treatment.
All treatment groups were well-tolerated, with various dose levels and dosing frequency for the duration of the treatment period from day 0 to day 28 in the tumor bearing mice, as shown in FIG. 2.

[3] = Liver microsomal stability (HLM); format: in vitro ADME; settings: human, liver microsomes, human liver microsomes 0.5 mg/mL, 1 μM compound, NADPH

solubility at 2 h [1]: ≥ 100 µM | microsomal CLint at 1 μM [3]: < 10 µL/min/mg
SMILES: COc1ncnc(C2CC2)c1-c1ncc2cc(C3CCN(C)CC3)c(=O)n(Cc3ccc(-c4nc(C(F)(F)F)cn4C4CC4)cc3)c2n1 [Compound I-111]
TGI (tumor growth inhibition) ([2]; 10 mg/kg QD oral gavage): ~55% | TGI (tumor growth inhibition) ([2]; 30 mg/kg QD oral gavage): ~80% | TGI (tumor growth inhibition) ([2]; 60 mg/kg QD oral gavage): > 100%
